The source of these data is ChEMBL document CHEMBL1629576, “Microanalysis of beta-lactam antibiotics and vancomycin in plasma for pharmacokinetic studies in neonates” (Antimicrob Agents Chemother, 2009).

What all share (assay type): ADME, organism-based
A short description of data set [1]: Elimination rate constant in extracorporeal membrane oxygenation-treated human neonatal plasma at 25 mg/kg QID by UPLC-MS/MS analysis. The arrangement: dose 25 mg/kg.
Data set [2] can be described thus: Volume of distribution in extracorporeal membrane oxygenation-treated human neonatal plasma at 25 mg/kg SID by UPLC-MS/MS analysis. The arrangement: dose 25 mg/kg.
The test system of data set [3] is Plasma. In words: Volume of distribution in extracorporeal membrane oxygenation-treated human neonatal plasma at 20 mg/kg, po by UPLC-MS/MS analysis. Details: dose 20 mg/kg, route oral. Conditions: in vivo.
A short description of data set [4]: Elimination rate constant in extracorporeal membrane oxygenation-treated human neonatal plasma treatment at 50 mg/kg BID by UPLC-MS/MS analysis. The arrangement: dose 50 mg/kg.
Data set [5] is described as follows: Volume of distribution in extracorporeal membrane oxygenation-treated human neonatal plasma at 50 mg/kg BID by UPLC-MS/MS analysis. The arrangement: dose 50 mg/kg.
For data set [6], the system named is Plasma. In words: Intercompartmental clearance rate from peripheral to central side of extracorporeal membrane oxygenation-treated human neonatal plasma at 20 mg/kg, po by UPLC-MS/MS analysis. Details: dose 20 mg/kg, route oral. The settings on record: in vivo.
Data set [7] concerns Plasma. Kind of data set: Intercompartmental clearance rate from central to peripheral side of extracorporeal membrane oxygenation-treated human neonatal plasma at 20 mg/kg, po by UPLC-MS/MS analysis. The arrangement: dose 20 mg/kg, route oral. The settings on record: in vivo.

In data set [1], `CC1(C)S[C@@H]2[C@H](NC(=O)[C@H](N)c3ccc(O)cc3)C(=O)N2[C@H]1C(=O)O` [AMOXICILLIN] gave a k el of 9.17e-05 s⁻¹. The Vd worked out at 0.713 L/kg in data set [2] and 1.03 L/kg with Plasma [3].
`CO/N=C(\C(=O)N[C@@H]1C(=O)N2C(C(=O)O)=C(COC(C)=O)CS[C@H]12)c1csc(N)n1` [CEFOTAXIME] had a k el in data set [4] of 5.47e-05 s⁻¹. This compound also registered a Vd in data set [5] of 0.912 L/kg.
For `CN[C@H](CC(C)C)C(=O)N[C@H]1C(=O)N[C@@H](CC(N)=O)C(=O)N[C@H]2C(=O)N[C@H]3C(=O)N[C@H](C(=O)N[C@H](C(=O)O)c4cc(O)cc(O)c4-c4cc3ccc4O)[C@H](O)c3ccc(c(Cl)c3)Oc3cc2cc(c3O[C@@H]2O[C@H](CO)[C@@H](O)[C@H](O)[C@H]2O[C@H]2C[C@](C)(N)[C@H](O)[C@H](C)O2)Oc2ccc(cc2Cl)[C@H]1O` [VANCOMYCIN], the k21 in the data set on Plasma [6] was 2.634 h⁻¹. The compound also registered a k12 with Plasma [7] of 1.5 h⁻¹.
